{
  "source": "patent US8859598B2",
  "about": "“1, 2, 4-oxadiazoles azetidine derivatives as sphingosine-1 phosphate receptors modulators” (Allergan, Inc., priority 2012, dated 2014)",
  "molecular_target": "T1, human S1P1 receptor (Homo sapiens, UniProt P21453)",
  "T1 construct": "expressed in transfected cells; membranes used",
  "T1 sequence (P21453 whole entry)": "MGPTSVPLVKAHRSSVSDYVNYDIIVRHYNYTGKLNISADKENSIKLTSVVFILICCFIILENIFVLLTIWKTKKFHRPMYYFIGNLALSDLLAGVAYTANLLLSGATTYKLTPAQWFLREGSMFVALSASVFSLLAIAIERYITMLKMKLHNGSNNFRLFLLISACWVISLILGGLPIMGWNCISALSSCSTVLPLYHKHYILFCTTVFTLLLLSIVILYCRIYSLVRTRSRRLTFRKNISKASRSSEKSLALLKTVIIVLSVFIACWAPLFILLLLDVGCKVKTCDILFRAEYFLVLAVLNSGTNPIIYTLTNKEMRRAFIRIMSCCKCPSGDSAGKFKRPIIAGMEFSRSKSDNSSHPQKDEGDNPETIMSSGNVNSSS",
  "assay": "GTP γ35S binding assay for S1P1 activity",
  "assay_type": "biochemical",
  "conditions": "membranes of cells stably expressing the S1P1 receptor, test concentrations 0.08 to 5,000 nM",
  "procedure": "Compounds were synthesized and tested for S1P1 activity using the GTP γ^35S binding assay. These compounds may be assessed for their ability to activate or block activation of the human S1P1 receptor in cells stably expressing the S1P1 receptor.\nGTP γ^35S binding was measured in the medium containing (mM) HEPES 25, pH 7.4, MgCl2 10, NaCl 100, dithitothreitol 0.5, digitonin 0.003%, 0.2 nM GTP γ^35S, and 5 μg membrane protein in a volume of 150 μl. Test compounds were included in the concentration range from 0.08 to 5,000 nM unless indicated otherwise. Membranes were incubated with 100 μM 5′-adenylylimmidodiphosphate for 30 min, and subsequently with 10 μM GDP for 10 min on ice. Drug solutions and membrane were mixed, and then reactions were initiated by adding GTP γ^35S and continued for 30 min at 25° C. Reaction mixtures were filtered over Whatman GF/B filters under vacuum, and washed three times with 3 mL of ice-cold buffer (HEPES 25, pH7.4, MgCl2 10 and NaCl 100). Filters were dried and mixed with scintillant, and counted for ^35S activity using a β-counter. Agonist-induced GTP γ^35S binding was obtained by subtracting that in the absence of agonist. Binding data were analyzed using a non-linear regression method. In case of antagonist assay, the reaction mixture contained 10 nM […] in the presence of test antagonist at concentrations ranging from 0.08 to 5000 nM.",
  "data": [
    {"smiles": "O=C(O)C1CN(Cc2ccc(-c3noc(CCCCc4ccccc4)n3)cc2)C1", "note": "[Compound 1, 1-{4-[5-(4-Phenylbutyl)-1,2,4-oxadiazol-3-yl]benzyl}azetidine-3-carboxylic acid]", "values": [
      {"measurement": "EC50", "value": 483, "unit": "nM"}
    ]}
  ]
}
